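Results reflect a 48-hour exposure of cells in 96-well plates to compound at five concentrations. Here, GI50 denotes the concentration required for 50% inhibition of growth.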 Calls of active or inactive are those of the source. Rule as the data show it: active = GI50 up to about 1.1 µM and inactive = higher.
Tests used:
Assay in all cases: NCI-60 cell line screen, 48 h
SK-MEL-2 = tested on: SK-MEL-2
LOX IMVI = tested on: LOX IMVI
OVCAR-4 = tested on: OVCAR-4
A498 = tested on: A498
HOP-92 = tested on: HOP-92
HL-60 = tested on: HL-60
CAKI-1 = tested on: CAKI-1
HCC 2998 = tested on: HCC 2998
K562 = tested on: K562
U-251 = tested on: U-251
NCI-H460 = tested on: NCI-H460
SF-295 = tested on: SF-295
SN12C = tested on: SN12C
OVCAR-3 = tested on: OVCAR-3
SW-620 = tested on: SW-620
Hs-578T = tested on: Hs-578T
CCRF-CEM = tested on: CCRF-CEM
MDA-N = tested on: MDA-N
NCI/ADR-RES = tested on: NCI/ADR-RES
MDA-MB-435 = tested on: MDA-MB-435

Compound: Cc1ccccc1NC(=O)O/N=C(\Cl)C(C)C
- GI50 (SK-MEL-2): 17.8 µM (inactive)
- GI50 (LOX IMVI): 1.55 µM (inactive)
- GI50 (OVCAR-4): 8.45 µM (inactive)
- GI50 (A498): 17.9 µM (inactive)
- GI50 (HOP-92): 2.28 µM (inactive)
- GI50 (HL-60): 2.46 µM (inactive)
- GI50 (CAKI-1): 1.77 µM (inactive)
- GI50 (HCC 2998): 17.3 µM (inactive)
- GI50 (K562): 1.46 µM (inactive)
- GI50 (U-251): 19.4 µM (inactive)
- GI50 (NCI-H460): 17.8 µM (inactive)
- GI50 (SF-295): 18.9 µM (inactive)
- GI50 (SN12C): 1.62 µM (inactive)
- GI50 (OVCAR-3): 4.29 µM (inactive)
- GI50 (SW-620): 1.82 µM (inactive)
- GI50 (Hs-578T): 22.3 µM (inactive)
- GI50 (CCRF-CEM): 1.48 µM (inactive)
- GI50 (MDA-N): 2.72 µM (inactive)
- GI50 (NCI/ADR-RES): 16.5 µM (inactive)
- GI50 (MDA-MB-435): 13.2 µM (inactive)

Compound: COc1cc2c(c(OC)c1OC)C(=O)[C@@H]1[C@H]2N1C(=O)NCCCl
- GI50 (SK-MEL-2): > 100 µM (inactive)
- GI50 (LOX IMVI): 39.3 µM (inactive)
- GI50 (OVCAR-4): 52.4 µM (inactive)
- GI50 (A498): 70.1 µM (inactive)
- GI50 (HOP-92): > 100 µM (inactive)
- GI50 (HL-60): 29.2 µM (inactive)
- GI50 (CAKI-1): 56.8 µM (inactive)
- GI50 (HCC 2998): > 100 µM (inactive)
- GI50 (K562): 45.8 µM (inactive)
- GI50 (U-251): 37.1 µM (inactive)
- GI50 (NCI-H460): 40.6 µM (inactive)
- GI50 (SF-295): > 100 µM (inactive)
- GI50 (SN12C): 54.7 µM (inactive)
- GI50 (OVCAR-3): 38.4 µM (inactive)
- GI50 (SW-620): > 100 µM (inactive)
- GI50 (Hs-578T): 61.2 µM (inactive)
- GI50 (CCRF-CEM): 30.1 µM (inactive)
- GI50 (MDA-N): 32.4 µM (inactive)
- GI50 (NCI/ADR-RES): > 100 µM (inactive)
- GI50 (MDA-MB-435): 32.6 µM (inactive)

Compound: CCCCCCCCCCCCc1ccc(S(=O)(=O)O)cc1
- GI50 (LOX IMVI): 49.5 µM (inactive)
- GI50 (OVCAR-4): > 100 µM (inactive)
- GI50 (A498): 26.8 µM (inactive)
- GI50 (HOP-92): 88.1 µM (inactive)
- GI50 (HL-60): > 100 µM (inactive)
- GI50 (CAKI-1): > 100 µM (inactive)
- GI50 (HCC 2998): > 100 µM (inactive)
- GI50 (K562): > 100 µM (inactive)
- GI50 (U-251): 89.7 µM (inactive)
- GI50 (NCI-H460): > 100 µM (inactive)
- GI50 (SF-295): > 100 µM (inactive)
- GI50 (SN12C): > 100 µM (inactive)
- GI50 (OVCAR-3): > 100 µM (inactive)
- GI50 (SW-620): > 100 µM (inactive)
- GI50 (Hs-578T): > 100 µM (inactive)
- GI50 (CCRF-CEM): > 100 µM (inactive)
- GI50 (MDA-N): > 100 µM (inactive)
- GI50 (NCI/ADR-RES): > 100 µM (inactive)
- GI50 (MDA-MB-435): > 100 µM (inactive)

Compound: Cc1nc2c(cc1OCc1ccccc1)C(=O)C1=C(C2=O)C2OC(=O)CC2OC1(C)C (stereo not drawn)
- GI50 (SK-MEL-2): 1.46 µM (inactive)
- GI50 (LOX IMVI): 0.215 µM (active)
- GI50 (OVCAR-4): 0.498 µM (active)
- GI50 (A498): 1.6 µM (inactive)
- GI50 (HOP-92): 0.375 µM (active)
- GI50 (HL-60): 0.0697 µM (active)
- GI50 (CAKI-1): 0.468 µM (active)
- GI50 (HCC 2998): 0.579 µM (active)
- GI50 (U-251): 0.859 µM (active)
- GI50 (NCI-H460): 1.32 µM (inactive)
- GI50 (SN12C): 0.182 µM (active)
- GI50 (SW-620): 0.322 µM (active)
- GI50 (Hs-578T): 0.169 µM (active)
- GI50 (CCRF-CEM): 0.17 µM (active)
- GI50 (MDA-N): 0.404 µM (active)
- GI50 (NCI/ADR-RES): 3.14 µM (inactive)
- GI50 (MDA-MB-435): 0.55 µM (active)

Compound: CC(=O)Nc1ccc2c(c1)/C(=C\c1ccc([N+](C)(C)C)cc1)c1ccccc1-2
- GI50 (LOX IMVI): 47.9 µM (inactive)
- GI50 (OVCAR-4): 35.3 µM (inactive)
- GI50 (A498): 42.1 µM (inactive)
- GI50 (HOP-92): 18.1 µM (inactive)
- GI50 (HL-60): 24.8 µM (inactive)
- GI50 (CAKI-1): > 100 µM (inactive)
- GI50 (HCC 2998): 55.6 µM (inactive)
- GI50 (K562): 29.6 µM (inactive)
- GI50 (U-251): 18.4 µM (inactive)
- GI50 (NCI-H460): 34.9 µM (inactive)
- GI50 (SF-295): 46.1 µM (inactive)
- GI50 (SN12C): 31 µM (inactive)
- GI50 (OVCAR-3): 36.5 µM (inactive)
- GI50 (SW-620): 44.1 µM (inactive)
- GI50 (Hs-578T): 35.4 µM (inactive)
- GI50 (CCRF-CEM): 22.5 µM (inactive)
- GI50 (MDA-N): 32.8 µM (inactive)
- GI50 (NCI/ADR-RES): > 100 µM (inactive)
- GI50 (MDA-MB-435): 36.2 µM (inactive)

Compound: COc1cc(OCc2ccc3nc(-c4ccccc4)c(Cl)nc3c2)cc(OC)c1OC
- GI50 (SK-MEL-2): 45.5 µM (inactive)
- GI50 (LOX IMVI): > 100 µM (inactive)
- GI50 (OVCAR-4): > 100 µM (inactive)
- GI50 (A498): 32.5 µM (inactive)
- GI50 (HOP-92): 8.71 µM (inactive)
- GI50 (HL-60): 24.5 µM (inactive)
- GI50 (CAKI-1): 24.8 µM (inactive)
- GI50 (HCC 2998): > 100 µM (inactive)
- GI50 (U-251): 16.5 µM (inactive)
- GI50 (NCI-H460): 90.2 µM (inactive)
- GI50 (SF-295): 37.4 µM (inactive)
- GI50 (SN12C): > 100 µM (inactive)
- GI50 (OVCAR-3): > 100 µM (inactive)
- GI50 (SW-620): > 100 µM (inactive)
- GI50 (Hs-578T): 39.6 µM (inactive)
- GI50 (CCRF-CEM): > 100 µM (inactive)
- GI50 (MDA-N): > 100 µM (inactive)
- GI50 (NCI/ADR-RES): 58.1 µM (inactive)
- GI50 (MDA-MB-435): > 100 µM (inactive)

Compound: c1ccc(COc2ncccc2C2SCCCS2)cc1
- GI50 (SK-MEL-2): > 100 µM (inactive)
- GI50 (LOX IMVI): 82.4 µM (inactive)
- GI50 (OVCAR-4): > 100 µM (inactive)
- GI50 (A498): > 100 µM (inactive)
- GI50 (HOP-92): > 100 µM (inactive)
- GI50 (HL-60): > 10 µM (inactive)
- GI50 (CAKI-1): > 100 µM (inactive)
- GI50 (HCC 2998): > 100 µM (inactive)
- GI50 (K562): 96.4 µM (inactive)
- GI50 (U-251): > 100 µM (inactive)
- GI50 (SF-295): > 100 µM (inactive)
- GI50 (SN12C): > 100 µM (inactive)
- GI50 (OVCAR-3): > 100 µM (inactive)
- GI50 (SW-620): > 100 µM (inactive)
- GI50 (Hs-578T): > 100 µM (inactive)
- GI50 (CCRF-CEM): > 100 µM (inactive)
- GI50 (MDA-N): > 100 µM (inactive)
- GI50 (NCI/ADR-RES): > 100 µM (inactive)
- GI50 (MDA-MB-435): > 100 µM (inactive)

Reference: ChEMBL document CHEMBL1201862, “PubChem BioAssay data set” (2004)
